Test results as given in ChEMBL document CHEMBL5724914, “Linking interpersonal differences in gut microbiota composition and drug biotransformation activity” (2024).

How the values were obtained:
[1] = (§1) The drug is tested on WLS-073 corresponding to human gut metagenome with ENA study accession number: PRJEB37062 and ENA sample accession number: ERS12561749 for biotransformation under anaerobic condition. The drug concentrations were measured over 9 timepoints collected between 0 and 24 hours of incubation by liquid-chromatography-coupled mass spectrometry (LC–MS); details: 2 µM
[2] = human gut metagenome, 24 h, 2 µM
[3] = human gut metagenome, 24 h, 2 µM; remark: listed apart in the source
[4] = human gut metagenome, 24 h, 2 µM; remark: listed apart in the source
[5] = as §1, with “WLS-006” for “WLS-073”, “ERS12561741” for “ERS12561749”; details: 2 µM
[6] = as §1, with “Z-024” for “WLS-073”, “pig” for “human”, “ERS12561823” for “ERS12561749”; details: 2 µM
[7] = as §1, with “Z-014” for “WLS-073”, “rat” for “human”, “ERS12561814” for “ERS12561749”; details: 2 µM
[8] = as §1, with “WLS-052” for “WLS-073”, “ERS12561747” for “ERS12561749”; details: 2 µM
[9] = as §1, with “Z-011” for “WLS-073”, “mouse” for “human”, “ERS12561811” for “ERS12561749”; details: 2 µM
[10] = as §1, with “Z-002” for “WLS-073”, “rabbit” for “human”, “ERS12561802” for “ERS12561749”; details: 2 µM
[11] = as §1, with “WLS-220” for “WLS-073”, “ERS12561769” for “ERS12561749”; details: 2 µM
[12] = human gut metagenome, 24 h, 2 µM; remark: listed apart in the source
[13] = human gut metagenome, 24 h, 2 µM; remark: listed apart in the source
[14] = as §1, with “Z-001” for “WLS-073”, “mouse” for “human”, “ERS12561801” for “ERS12561749”; details: 2 µM
[15] = as §1, with “WLS-027” for “WLS-073”, “ERS12561744” for “ERS12561749”; details: 2 µM
[16] = human gut metagenome, 24 h, 2 µM; remark: listed apart in the source
[17] = as §1, with “Z-007” for “WLS-073”, “rat” for “human”, “ERS12561807” for “ERS12561749”; details: 2 µM
[18] = as §1, with “Z-017” for “WLS-073”, “mouse” for “human”, “ERS12561816” for “ERS12561749”; details: 2 µM
[19] = human gut metagenome, 24 h, 2 µM; remark: listed apart in the source
[20] = as §1, with “WLS-007” for “WLS-073”, “ERS12561742” for “ERS12561749”; details: 2 µM
Note: call rule not given here.

SMILES | Bacterial Biotransformation [1] | Bacterial Biotransformation [2] | Bacterial Biotransformation [3] | Bacterial Biotransformation [4] | Bacterial Biotransformation [5] | Bacterial Biotransformation [6] | Bacterial Biotransformation [7] | Bacterial Biotransformation [8] | Bacterial Biotransformation [9] | Bacterial Biotransformation [10] | Bacterial Biotransformation [11] | Bacterial Biotransformation [12] | Bacterial Biotransformation [13] | Bacterial Biotransformation [14] | Bacterial Biotransformation [15] | Bacterial Biotransformation [16] | Bacterial Biotransformation [17] | Bacterial Biotransformation [18] | Bacterial Biotransformation [19] | Bacterial Biotransformation [20]
CC(C)(C)NCC(O)c1cc(Cl)c(N)c(Cl)c1 (stereo not given) [CLENBUTEROL] | Compound NOT metabolized | Compound NOT metabolized | Compound NOT metabolized | Compound NOT metabolized | Compound NOT metabolized | Compound NOT metabolized | Compound NOT metabolized | Compound NOT metabolized | Compound NOT metabolized | Compound NOT metabolized | Compound NOT metabolized | Compound NOT metabolized | Compound NOT metabolized | Compound NOT metabolized | Compound NOT metabolized | Compound NOT metabolized | Compound NOT metabolized | Compound NOT metabolized | Compound NOT metabolized | Compound NOT metabolized
C[N+]12CCC(CC1)C(OC(=O)C(O)(c1ccccc1)c1ccccc1)C2.[Br-] (stereo not given) [CLIDINIUM BROMIDE] | Compound NOT metabolized | Compound NOT metabolized | Compound NOT metabolized | Compound metabolized | Compound NOT metabolized | Compound metabolized | Compound NOT metabolized | Compound metabolized | Compound NOT metabolized | Compound NOT metabolized | Compound NOT metabolized | Compound metabolized | Compound metabolized | Compound metabolized | Compound NOT metabolized | Compound metabolized | Compound NOT metabolized | Compound NOT metabolized | Compound NOT metabolized | Compound NOT metabolized
Clc1cccc(Cl)c1N=C1NCCN1 [CLONIDINE] | Compound NOT metabolized | Compound NOT metabolized | Compound NOT metabolized | Compound metabolized | Compound metabolized | Compound NOT metabolized | Compound NOT metabolized | Compound NOT metabolized | Compound metabolized | Compound metabolized | Compound metabolized | Compound metabolized | Compound NOT metabolized | Compound metabolized | Compound NOT metabolized | Compound metabolized | Compound NOT metabolized | Compound NOT metabolized | Compound NOT metabolized | Compound NOT metabolized
COC(=O)[C@H](c1ccccc1Cl)N1CCc2sccc2C1.O=S(=O)(O)O [CLOPIDOGREL BISULFATE] | Compound metabolized | Compound metabolized | Compound metabolized | Compound metabolized | Compound metabolized | Compound metabolized | Compound NOT metabolized | Compound metabolized | Compound metabolized | Compound metabolized | Compound metabolized | Compound metabolized | Compound metabolized | Compound metabolized | Compound NOT metabolized | Compound metabolized | Compound NOT metabolized | Compound metabolized | Compound metabolized | Compound metabolized
O=P1(N(CCCl)CCCl)NCCCO1 (stereo not given) [CYCLOPHOSPHAMIDE ANHYDROUS] | Compound NOT metabolized | Compound NOT metabolized | Compound NOT metabolized | Compound metabolized | Compound NOT metabolized | Compound NOT metabolized | Compound NOT metabolized | Compound NOT metabolized | Compound NOT metabolized | Compound NOT metabolized | Compound metabolized | Compound metabolized | Compound NOT metabolized | Compound NOT metabolized | Compound NOT metabolized | Compound metabolized | Compound NOT metabolized | Compound NOT metabolized | Compound NOT metabolized | Compound NOT metabolized
Br.COc1ccc2c(c1)[C@]13CCCC[C@@H]1[C@H](C2)N(C)CC3.O [DEXTROMETHORPHAN HYDROBROMIDE] | Compound NOT metabolized | Compound NOT metabolized | Compound NOT metabolized | Compound metabolized | Compound metabolized | Compound metabolized | Compound NOT metabolized | Compound NOT metabolized | Compound NOT metabolized | Compound metabolized | Compound metabolized | Compound metabolized | Compound NOT metabolized | Compound NOT metabolized | Compound metabolized | Compound metabolized | Compound NOT metabolized | Compound NOT metabolized | Compound NOT metabolized | Compound NOT metabolized
CC(=O)Nc1ccc(OC(C)=O)cc1 [DIACETAMATE] | Compound metabolized | Compound metabolized | Compound metabolized | Compound metabolized | Compound metabolized | Compound metabolized | Compound metabolized | Compound metabolized | Compound metabolized | Compound metabolized | Compound metabolized | Compound metabolized | Compound metabolized | Compound metabolized | Compound metabolized | Compound metabolized | Compound metabolized | Compound metabolized | Compound metabolized | Compound metabolized
CCN(CC)CCOC(=O)C1(C2CCCCC2)CCCCC1 [DICYCLOMINE] | Compound NOT metabolized | Compound NOT metabolized | Compound NOT metabolized | Compound metabolized | Compound metabolized | Compound metabolized | Compound NOT metabolized | Compound NOT metabolized | Compound NOT metabolized | Compound metabolized | Compound NOT metabolized | Compound metabolized | Compound NOT metabolized | Compound NOT metabolized | Compound metabolized | Compound NOT metabolized | Compound NOT metabolized | Compound NOT metabolized | Compound metabolized | Compound metabolized
